We go through 3 compounds from US20170081357A1, “[…] ACTIVE 17-NITROGEN SUBSTITUTED ESTRATREINTHIAZOLE DERIVATIVES AS INHIBITORS OF 17.BETA-HYDROXYSTEROID DEHYDROGENASE” (FORENDO PHARMA LTD, priority 2013, published 2017).

Data set [1] has as its target T1, recombinant human 17β-HSD1 (Homo sapiens, UniProt P14061).
T1 construct: made in house; host or cells: Sd9 (Sf9) insect cells, baculovirus (Bac to Bac Expression System); microsomal fraction
T1 sequence (P14061 1-328): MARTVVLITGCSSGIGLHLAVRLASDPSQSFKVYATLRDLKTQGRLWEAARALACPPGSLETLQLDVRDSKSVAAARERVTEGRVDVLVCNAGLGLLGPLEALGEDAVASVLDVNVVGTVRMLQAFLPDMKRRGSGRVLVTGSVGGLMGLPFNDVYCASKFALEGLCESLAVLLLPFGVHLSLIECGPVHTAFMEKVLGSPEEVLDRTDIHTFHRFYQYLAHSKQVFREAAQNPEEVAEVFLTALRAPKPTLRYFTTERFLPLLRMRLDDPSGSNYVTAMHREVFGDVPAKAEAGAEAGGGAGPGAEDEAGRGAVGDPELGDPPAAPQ
The experiment in a line: Inhibition of recombinant human 17β-HSD1 (conversion of 3H-estrone to estradiol, HPLC). In kind it is biochemical. Particulars: inhibitor 1 μM; 30 nM estrone, 1 mM NADPH, 30 min at RT; read-out: 17β-HDS1 Inhibition % at 1 μM. Put shortly:
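Microsomal recombinant human 17β-HSD1 (1 μg/ml) from insect cells incubated 30 min at RT in 20 mM KH2PO4 pH 7.4 with 30 nM 3H-estrone, 1 mM NADPH and inhibitor at 1 μM or 0.1 μM (1% DMSO). Estrone/estradiol separated by reverse-phase HPLC with radioactivity flow detection; % inhibition = 100 − % conversion.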

The target of data set [2] is T2, recombinant human 17β-HSD2 (Homo sapiens, UniProt P37059).
T2 construct: made in house; host or cells: Sd9 (Sf9) insect cells, baculovirus (Bac to Bac Expression System); fractionated cell extract
T2 sequence (P37059 1-387): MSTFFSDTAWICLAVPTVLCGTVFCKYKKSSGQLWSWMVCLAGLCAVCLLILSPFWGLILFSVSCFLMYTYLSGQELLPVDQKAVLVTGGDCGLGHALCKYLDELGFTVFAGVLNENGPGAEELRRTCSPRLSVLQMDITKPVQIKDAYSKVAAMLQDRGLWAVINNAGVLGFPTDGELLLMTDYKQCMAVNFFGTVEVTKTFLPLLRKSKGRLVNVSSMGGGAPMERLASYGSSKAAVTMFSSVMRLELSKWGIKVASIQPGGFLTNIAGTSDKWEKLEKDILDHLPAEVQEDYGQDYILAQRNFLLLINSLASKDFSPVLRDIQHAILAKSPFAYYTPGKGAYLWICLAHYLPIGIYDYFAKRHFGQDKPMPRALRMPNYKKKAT
The experiment in a line: Inhibition of recombinant human 17β-HSD2 (conversion of 3H-estradiol to estrone, HPLC). In kind it is biochemical. Particulars: inhibitor 1 μM; 50 nM estradiol, 1 mM NADH, 30 min at RT. The procedure, abridged:
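Baculovirus/Sf9-expressed enzyme in detergent-solubilised membrane extract, 4 μg/ml, incubated 30 min at RT in 20 mM KH2PO4 pH 8.5 with 50 nM estradiol (³H-tracer) and 1 mM NADH; inhibitor at 1 μM or 0.1 μM, 1% DMSO final. TCA-stopped; estrone/estradiol separated by reverse-phase HPLC with flow scintillation; % inhibition = 100 − % conversion.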

Data set [3] in a line: Metabolic stability assay, human liver microsome and homogenate incubations. In kind it is in vitro ADME. The note with it: human liver homogenate or microsomes, LC/PDA/TOF-MS. How it is done: The in vitro metabolic stability of the compounds of the invention was determined for exemplified compounds using human liver microsome and homogenate incubations. The incubation time points used with or without appropriate cofactors were 0 min and 60 min. Samples were collected at both time points and substrates were detected using LC/PDA/TOF-MS. In vitro metabolic stability (% remaining after 60 min in human liver homogenate or microsomes) of the compounds were calculated and the results are summarized in Table 3.

Regarding `Cc1cnc(NC(=O)CC[C@@H]2C(=C\O)/C(=N\O)[C@@]3(C)CCC4c5cc(Br)c(O)c(Br)c5CCC4C23)s1` (stereo partly drawn) [Compound 70, 3-{(13S,15S)-2,4-Dibromo-3-hydroxy-17-[(Z)-hydroxyimino]-16-[1-hydroxy-meth-(E)-ylidene]-13-methyl-7,8,9,11,12,13,14,15,16,17-decahydro-6H-cyclopenta[a]phenanthren-15-yl}-N-(5-methylthiazol-2-yl)propanamide], the inhibition at 1 µM was found to be 94% in data set [1] and 8% in data set [2]. Further, the “In vitro metabolic stability, % remaining after 60 min” value in data set [3] is given as 97%.

For `CO/N=C1\C[C@@H](CCC(=O)Nc2ncc(C)s2)C2C3CCc4cc(O)c(F)cc4C3CC[C@]12C` (stereo partly drawn) [Compound 91, 3-{(13S,15R)-2-Fluoro-3-hydroxy-17-[(E)-methoxyimino]-13-methyl-7,8,9,11,12,13,14,15,16,17-decahydro-6H-cyclopenta[a]phenanthren-15-yl}-N-(5-methylthiazol-2-yl)propanamide], the inhibition at 1 µM in data set [1] was found to be 94%; in data set [2], 5%. Further, in data set [3], the “In vitro metabolic stability, % remaining after 60 min” value is reported as 92%.

For `CO/N=C1\C[C@@H](CCC(=O)Nc2ncc(C)s2)C2C3CCc4c(ccc(O)c4F)C3CC[C@]12C` (stereo partly drawn) [Compound 92, 3-{(13S,15R)-4-Fluoro-3-hydroxy-17-[(E)-methoxyimino]-13-methyl-7,8,9,11,12,13,14,15,16,17-decahydro-6H-cyclopenta[a]phenanthren-15-yl}-N-(5-methylthiazol-2-yl)propanamide], the inhibition at 1 µM in data set [1] was determined as 90%; in data set [2], 7%. Moreover, the “In vitro metabolic stability, % remaining after 60 min” value in data set [3] turned out to be 68%.

What is called inhibition is how much of the control response was suppressed.
